Structures can show the parent of a compound that is named as a salt.
Biological target: T1, human CPT1A (Homo sapiens, UniProt P50416)
T1 construct: made in house; host or cells: Saccharomyces cerevisiae (pESC-trp) or cultured mammalian cells (pCDNA3.1); mitochondrial extract
T1 sequence (P50416 1-773): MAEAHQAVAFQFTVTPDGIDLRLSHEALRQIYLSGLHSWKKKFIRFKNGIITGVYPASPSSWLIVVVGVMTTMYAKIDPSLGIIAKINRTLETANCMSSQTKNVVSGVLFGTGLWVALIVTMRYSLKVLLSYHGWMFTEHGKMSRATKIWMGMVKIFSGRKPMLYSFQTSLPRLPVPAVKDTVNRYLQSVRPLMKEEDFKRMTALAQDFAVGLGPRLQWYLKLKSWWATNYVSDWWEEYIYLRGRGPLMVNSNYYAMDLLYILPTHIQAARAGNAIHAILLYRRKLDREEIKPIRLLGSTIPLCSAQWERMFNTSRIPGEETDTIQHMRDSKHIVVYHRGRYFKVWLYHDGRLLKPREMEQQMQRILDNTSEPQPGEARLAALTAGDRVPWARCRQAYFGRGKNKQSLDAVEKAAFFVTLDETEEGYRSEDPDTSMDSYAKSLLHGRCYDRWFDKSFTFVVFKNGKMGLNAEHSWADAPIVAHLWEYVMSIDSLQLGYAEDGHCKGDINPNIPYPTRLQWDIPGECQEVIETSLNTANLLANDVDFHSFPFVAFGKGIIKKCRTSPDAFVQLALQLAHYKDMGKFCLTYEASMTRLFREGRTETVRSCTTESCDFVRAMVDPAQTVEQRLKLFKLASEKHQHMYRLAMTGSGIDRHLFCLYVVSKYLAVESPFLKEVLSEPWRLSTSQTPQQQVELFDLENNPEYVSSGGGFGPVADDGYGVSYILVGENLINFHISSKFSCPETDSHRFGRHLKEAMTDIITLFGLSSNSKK
Experiment: Human CPT1A LC/MS assay
Assay type: biochemical
Text: Nucleotide sequences encoding human CPT1 enzymes were individually cloned into the yeast expression vector pESC-trp at the Cla1 (5′ terminus) and Pac1 (3′ terminus) restriction sites by PCR amplification of the open reading frame using oligonucleotide primers designed to encode the wild-type CPT1 protein sequence. Standard molecular biology techniques were used to transform and express the CPT1 proteins in the yeast Saccharomyces cerevisiae. The yeast cells were lysed by enzymatic degradation of the cell wall by Zymolase, and the mitochondria were isolated by standard biochemical techniques. The integrity of the isolated mitochondria was monitored by determining the activity of succinate dehydrogenase in the mitochondrial preparations. The mitochondrial extracts were stored at −80° C. in buffer containing 10 mM HEPES pH 7.4 and 250 mM sucrose.
Human CPT1 (A, B, C) genes were additionally cloned into the pCDNA3.1 vector individually for expression in cultured mammalian cells. Cells expressing the exogenous CPT1A were identified and grown under standard conditions. Mammalian cells were harvested, and mitochondrial extracts prepared using standard biochemical methods. The mitochondrial extracts were stored at −80° C. in buffer containing 10 mM HEPES pH 7.4 and 250 mM sucrose.
Assays were performed in 96-well plate format. Each 100 μL reaction contained 40 mM KCl, 50 mM TrisHCl pH 7.5, and 250 mM mannitol (Assay Buffer), and 1.6 μg protein of an extract, 20 μM palmitoyl-CoA, 50 μM L-carnitine, and 10 ug/mL BSA. Reactions were incubated at room temperature and stopped after 10 minutes by extraction with 200 μL of water saturated n-butanol containing myristoyl carnitine (500 nM) as an internal standard. The samples were thoroughly mixed, and the phases separated by centrifugation. Samples were prepared for analysis with a 10 fold dilution of the n-butanol phase containing the reaction product palmitoyl carnitine into a 50:50 (acetonitrile:water) solvent for analysis. […] of prepared sample was separated on a Phenomenex Jupiter 5μ C4 reverse-phase column using an Agilent 1100 HPLC with a gradient from 50% acetonitrile (0.5% acetic acid) to 100% acetonitrile and quantified by detection with a Bruker Esquire 3000plus mass spectrometer. The abundance of the palmitoyl carnitine product was determined relative to the internal standard and the actual quantity of palmitoyl carnitine can be determined from a standard curve prepared using the n-butanol solution containing the internal standard.
Compounds were evaluated in two formats, a screening format, and a dose response format. The screening format was performed by adding 25 μL compound in 20% DMSO and Assay Buffer to 25 μL of extract containing […] and Assay Buffer, followed by a 10 minute incubation at room temperature. 50 μL of 40 μM palmitoyl-CoA in Assay Buffer was added to the reaction mixture, mixed and incubated for 10 minutes at room temperature. A negative control for activity was also performed where the carnitine was omitted from the reaction. A positive control for activity was also performed by omitting compound from the solution containing 20% DMSO and Assay Buffer. The reaction mixture was extracted and analyzed as described above. The inhibition by compound was determined by comparing the control relative activity to the relative activity observed in wells containing the compound. Relative activity was determined by subtracting the relative intensity (area palmitoyl carnitine/area myristoyl carnitine) observed in the negative control from the relative intensity observed in the experimental well, and dividing by the relative activity observed in the positive control.
[formula] Compound characterization by dose response format was performed using the above described assay conditions and a 16 point compound titration in 2 fold compound dilution steps. The DMSO concentration was kept constant at 20% (v/v) for all compound concentrations.

[1] = human CPT1A LC/MS assay, dose response format

**Q.** For `Cc1cccc(CCc2ccc(S(=O)(=O)N[C@H](CC(=O)O)C[N+](C)(C)C)s2)c1` [Example S77, (R)-3-carboxy-N,N,N-trimethyl-2-(5-(3-methylphenethyl)thiophene-2-sulfonamido)propan-1-aminium 2,2,2-trifluoroacetate], which IC50 [1] is on record?
**A.** 10 to 100 µM

**Q.** Which IC50 [1] does the source give for `CN(C)C[C@@H](CC(=O)O)NC(=O)N(C)c1ccc(Oc2ccccc2)cc1` [Example S33, (R)-4-(dimethylammonio)-3-(3-methyl-3-(4-phenoxyphenyl)-ureido)butanoate] here?
**A.** > 2500 µM

**Q.** `C[N+](C)(C)C[C@@H](CC(=O)[O-])NC(=O)C(F)(F)c1ccccc1` [Example S69, (R)-3-(2,2-difluoro-2-phenylacetamido)-4-(trimethylammonio)butanoate] was tested. Which IC50 [1] did it give?
**A.** 100 to 1000 µM

**Q.** `CCCCCc1ccc(C#Cc2ccc(NS(=O)(=O)N[C@H](CC(=O)[O-])C[N+](C)(C)C)cc2)cc1` [Example S107, (R)-3-(N-(4-((4-pentylphenyl)ethynyl)phenyl)sulfamoylamino)-4-(trimethylammonio)butanoate] was tested. Which IC50 [1] did it give?
**A.** 1 to 10 µM

**Q.** For `CN(C(=O)N[C@H](CC(=O)[O-])C[N+](C)(C)C)c1ccc(Oc2ccccc2)cc1` [Example S34, (R)-3-(3-methyl-3-(4-phenoxyphenyl)ureido)-4-(trimethyl-ammonio)butanoate], which IC50 [1] is on record?
**A.** 100 to 1000 µM

**Q.** Which IC50 [1] does the source give for `CCOc1ccc(S(=O)(=O)N[C@H](CC(=O)O)C[N+](C)(C)C)cc1NC(=O)N1CCOCC1` [Example S74, (R)-3-carboxy-2-(4-ethoxy-3-(morpholine-4-carboxamido)phenyl-sulfonamido)-N,N,N-trimethylpropan-1-aminium 2,2,2-trifluoroacetate] here?
**A.** > 2500 µM

**Q.** With `C[N+](C)(C)C[C@@H](CC(=O)O)NC(=O)c1ccc(C#Cc2ccccc2)cc1` [Example S62, (R)-3-(4-(phenylethynyl)benzamido)-4-(trimethylammonio)butanoate 2,2,2-trifluoroacetate] as the compound, how does the IC50 [1] read?
**A.** 10 to 100 µM

**Q.** Which IC50 [1] does the source give for `CCCCCCOc1cccc(C#Cc2ccc(C(=O)N[C@H](CC(=O)[O-])C[N+](C)(C)C)o2)c1` [Example S122, (R)-3-(5-((3-(hexyloxy)phenyl)ethynyl)furan-2-carboxamido)-4-(trimethylammonio)butanoate] here?
**A.** 1 to 10 µM

**Q.** How did the IC50 [1] turn out when `C[N+](C)(C)C[C@@H](CC(=O)[O-])NC(=O)c1ccc(CCc2ccccc2)cc1` [Example S64, (R)-3-(4-phenethylbenzamido)-4-(trimethylammonio)butanoate] was run?
**A.** 10 to 100 µM

**Q.** With `C[N+](C)(C)C[C@@H](CC(=O)[O-])NC(=O)Nc1cc(C(F)(F)F)ccc1Cl` [Example S85, (R)-3-(3-(2-chloro-5-(trifluoromethyl)phenyl)ureido)-4-(trimethyl-ammonio)butanoate] as the compound, how does the IC50 [1] read?
**A.** 1000 to 2500 µM

**Q.** Which IC50 (dose response assay, n=17) does the source give for `C[N+](C)(C)C[C@H](N)CC(=O)[O-]` [L-aminocarnitine, (R)-3-amino-4-(trimethylammonio)butanoate, reference compound] here?
**A.** 7 ± 2.5 µM

**Q.** For `C[N+](C)(C)C[C@@H](CC(=O)O)NC(=O)c1ccc(C#Cc2ccccc2)s1` [Example S43, (R)-3-(5-(phenylethynyl)thiophene-2-carboxamido)-4-(trimethylammonio)-butanoate], which IC50 [1] is on record?
**A.** ≤ 1 µM

**Q.** Which IC50 [1] does the source give for `C[N+](C)(C)C[C@@H](CC(=O)[O-])NC(=O)Nc1ccccc1-c1ccccc1` [Example S101, (R)-2-(3-biphenyl-2-ylureido)-3-carboxy-N,N,N-trimethylpropan-1-aminium] here?
**A.** 1000 to 2500 µM

**Q.** `Cc1nc(-c2ccccc2)sc1NC(=O)N[C@H](CC(=O)[O-])C[N+](C)(C)C` [Example S9, (R)-3-(3-(4-methyl-2-phenylthiazol-5-yl)ureido)-4-(trimethylammonio)-butanoate] was tested. Which IC50 [1] did it give?
**A.** 1000 to 2500 µM

**Q.** `CCCCCCC(=O)C(=O)N[C@H](CC(=O)O)C[N+](C)(C)C` [Example S120, (R)-3-carboxy-N,N,N-trimethyl-2-(2-oxooctanamido)propan-1-aminium 2,2,2-trifluoroacetate] was tested. Which IC50 [1] did it give?
**A.** 1 to 10 µM

**Q.** For `CCCCc1ccc(NC(=O)N[C@H](CC(=O)[O-])C[N+](C)(C)C)c(C)c1` [Example S13, (R)-2-(3-(4-Butyl-2-methylphenyl)ureido)-3-carboxy-N,N,N-trimethylpropan-1-aminium], which IC50 [1] is on record?
**A.** 1000 to 2500 µM

**Q.** How did the IC50 [1] turn out when `CCCCCCCCCCc1ccc(NS(=O)(=O)N[C@H](CC(=O)O)C[N+](C)(C)C)cc1` [Example S92, (R)-3-(N-(4-decylphenyl)sulfamoylamino)-4-(trimethylammonio)butanoate] was run?
**A.** ≤ 1 µM

**Q.** Which IC50 [1] does the source give for `C[N+](C)(C)C[C@@H](CC(=O)[O-])NC(=O)c1ccc(OCC(F)(F)F)nc1` [Example S52, (R)-3-(6-(2,2,2-trifluoroethoxy)nicotinamido)-4-(trimethylammonio)butanoate] here?
**A.** 1000 to 2500 µM

**Q.** Which IC50 [1] does the source give for `C[N+](C)(C)C[C@@H](CC(=O)[O-])NC(=O)c1ccc(CSc2ccc(Cl)cc2)o1` [Example S71, (R)-3-(5-((4-chlorophenylthio)methyl)furan-2-carboxamido)-4-(trimethyl-ammonio)butanoate] here?
**A.** ≤ 1 µM

**Q.** Which IC50 [1] does the source give for `Cc1ncoc1C(=O)N[C@H](CC(=O)O)C[N+](C)(C)C` [Example S49, (R)-3-carboxy-N,N,N-trimethyl-2-(4-methyloxazole-5-carboxamido)-propan-1-aminium trifluoroacetate] here?
**A.** 100 to 1000 µM

**Q.** With `CCCCCCc1ccc(C#Cc2ccc(C(=O)N[C@H](CC(=O)O)C[N+](C)(C)C)o2)s1` [Example S118, (R)-3-carboxy-2-(5-((5-hexylthiophen-2-yl)ethynyl)furan-2-carboxamido)-N,N,N-trimethylpropan-1-aminium 2,2,2-trifluoroacetate] as the compound, how does the IC50 [1] read?
**A.** 1 to 10 µM

**Q.** How did the IC50 [1] turn out when `CCCCCCOc1cccc(CCc2ccc(C(=O)N[C@H](CC(=O)O)C[N+](C)(C)C)o2)c1` [Example S125, (R)-3-carboxy-2-(5-(3-(hexyloxy)phenethyl)furan-2-carboxamido)-N,N,N-trimethylpropan-1-aminium 2,2,2-trifluoroacetate] was run?
**A.** ≤ 1 µM

**Q.** With `CC(C)(C)c1ccc(OCc2ccc(C(=O)N[C@H](CC(=O)[O-])C[N+](C)(C)C)o2)cc1` [Example S60, (R)-3-(5-((4-tert-butylphenoxy)methyl)furan-2-carboxamido)-4-(trimethyl-ammonio)butanoate] as the compound, how does the IC50 [1] read?
**A.** 100 to 1000 µM

**Q.** With `C[N+](C)(C)C[C@@H](CC(=O)O)NC(=O)c1ccc(CCc2ccsc2)o1` [Example S124, (R)-3-carboxy-N,N,N-trimethyl-2-(5-(2-(thiophen-3-yl)ethyl)furan-2-carboxamido)propan-1-aminium 2,2,2-trifluoroacetate] as the compound, how does the IC50 [1] read?
**A.** ≤ 1 µM

**Q.** For `C[N+](C)(C)C[C@@H](CC(=O)[O-])NC(=O)Nc1ccc(Oc2ccccc2)cc1` [Example S8, (R)-3-(3-(4-phenoxyphenyl)ureido)-4-(trimethylammonio)butanoate], which IC50 [1] is on record?
**A.** 10 to 100 µM

— US8410150B2, “Inhibitors of carnitine palmitoyltransferase and treating cancer” (University Health Network, priority 2007, dated 2013)
